Source: PubChem BioAssay AID1963856 (Molecular Pharmacology Branch, DTP, NCI, 2024)
The source made the active and inactive calls. How the source made its calls: active means viability on the fitted dose curve at most 10% of control; inactive means the rest.

Tested on: LG0567-F671-PDC KRAS tumor spheroid viability
Experiment: Anticancer human tumor LG0567-F671-PDC patient-derived lung adenocarcinoma cell line growth inhibition [KRAS2]
Settings: spheroids with HUVEC and MSC; for IC50: curve of first compound; for viability, T/C: stronger effect = lower value
Summary of the method: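 KRAS-mutant tumor cells were grown as spheroids with HUVEC endothelial cells and human MSCs as stroma. Targeted agents were tested alone and with KRAS pathway inhibitors. Doses started at or near clinical Cmax, or 10 microM, descending half-log.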

[1] = second compound 0.1 µM, first compound 0.0316 µM
[2] = second compound 0.1 µM, first compound 0.1 µM
[3] = second compound 0.1 µM, first compound 0.316 µM
[4] = second compound 0.1 µM, first compound 1 µM
[5] = second compound 0.1 µM, first compound 3.16 µM
[6] = second compound 0.1 µM, first compound 10 µM
[7] = second compound 0.316 µM, first compound 0.0316 µM
[8] = second compound 0.316 µM, first compound 0.1 µM
[9] = second compound 0.316 µM, first compound 0.316 µM
[10] = second compound 0.316 µM, first compound 1 µM
[11] = second compound 0.316 µM, first compound 3.16 µM
[12] = second compound 0.316 µM, first compound 10 µM
[13] = second compound 1 µM, first compound 0.0316 µM
[14] = second compound 1 µM, first compound 0.1 µM
[15] = second compound 1 µM, first compound 0.316 µM
[16] = second compound 1 µM, first compound 1 µM
[17] = second compound 1 µM, first compound 3.16 µM
[18] = second compound 1 µM, first compound 10 µM
[19] = second compound 3.16 µM, first compound 0.0316 µM
[20] = second compound 3.16 µM, first compound 0.1 µM
[21] = second compound 3.16 µM, first compound 0.316 µM
[22] = second compound 3.16 µM, first compound 1 µM
[23] = second compound 3.16 µM, first compound 3.16 µM
[24] = second compound 3.16 µM, first compound 10 µM
[25] = second compound 10 µM, first compound 0.0316 µM
[26] = second compound 10 µM, first compound 0.1 µM
[27] = second compound 10 µM, first compound 0.316 µM
[28] = second compound 10 µM, first compound 1 µM
[29] = second compound 10 µM, first compound 3.16 µM
[30] = second compound 10 µM, first compound 10 µM
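Wherever IC50 is given: drug exposure lasted seven days after spheroids formed for three days.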
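Wherever viability, T/C is given: drug exposure lasted seven days after spheroids formed for three days; 100% = DMSO vehicle control viability.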

O=C(c1cc(Cc2n[nH]c(=O)c3ccccc23)ccc1F)N1CCN(C(=O)C2CC2)CC1 + CC1OCC2(CCN(c3cnc(Sc4ccnc(N)c4Cl)c(N)n3)CC2)C1N
IC50 (second compound 0.1 µM): > 10000 nM
IC50 (second compound 0.316 µM): < 31.6 nM
IC50 (second compound 1 µM): < 31.6 nM
IC50 (second compound 3.16 µM): < 31.6 nM
IC50 (second compound 10 µM): < 31.6 nM
viability, T/C [1]: 63.8%
viability, T/C [2]: 54%
viability, T/C [3]: 60.3%
viability, T/C [4]: 59.7%
viability, T/C [5]: 54.4%
viability, T/C [6]: 53.2%
viability, T/C [7]: 37.9%
viability, T/C [8]: 35.5%
viability, T/C [9]: 32.3%
viability, T/C [10]: 32.9%
viability, T/C [11]: 33.5%
viability, T/C [12]: 38.2%
outcome [13]: inactive
viability, T/C [14]: 40%
viability, T/C [15]: 35.5%
viability, T/C [16]: 29.8%
viability, T/C [17]: 32.8%
viability, T/C [18]: 28.6%
viability, T/C [19]: 20.9%
viability, T/C [20]: 20.8%
viability, T/C [21]: 24.8%
viability, T/C [22]: 26%
viability, T/C [23]: 23.9%
viability, T/C [24]: 23.8%
viability, T/C [25]: 10.2%
viability, T/C [26]: 11%
viability, T/C [27]: 12.2%
viability, T/C [28]: 11.8%
viability, T/C [29]: 14.2%
viability, T/C [30]: 17.4%

CC(C)n1nc(-c2ccc3oc(N)nc3c2)c2c(N)ncnc21 + C=CC(=O)N1CCN(c2nc(=O)n(-c3c(C)ccnc3C(C)C)c3nc(-c4c(O)cccc4F)c(F)cc23)C(C)C1
IC50 (second compound 0.1 µM): < 0.316 nM
IC50 (second compound 0.316 µM): < 0.316 nM
IC50 (second compound 1 µM): < 0.316 nM
IC50 (second compound 3.16 µM): < 0.316 nM
IC50 (second compound 10 µM): < 0.316 nM
viability, T/C (second compound 0.1 µM, first compound 0.000316 µM): 21.4%
viability, T/C (second compound 0.1 µM, first compound 0.001 µM): 17.1%
viability, T/C (second compound 0.1 µM, first compound 0.00316 µM): 14.8%
viability, T/C (second compound 0.1 µM, first compound 0.01 µM): 11.4%
viability, T/C [1]: 9.02%
viability, T/C [2]: 8.13%
viability, T/C (second compound 0.316 µM, first compound 0.000316 µM): 20.6%
viability, T/C (second compound 0.316 µM, first compound 0.001 µM): 20%
viability, T/C (second compound 0.316 µM, first compound 0.00316 µM): 17.2%
viability, T/C (second compound 0.316 µM, first compound 0.01 µM): 11%
viability, T/C [7]: 8.62%
viability, T/C [8]: 7.08%
viability, T/C (second compound 1 µM, first compound 0.000316 µM): 23.9%
viability, T/C (second compound 1 µM, first compound 0.001 µM): 14.5%
viability, T/C (second compound 1 µM, first compound 0.00316 µM): 14%
viability, T/C (second compound 1 µM, first compound 0.01 µM): 10.8%
viability, T/C [13]: 8.47%
viability, T/C [14]: 6.2%
viability, T/C (second compound 3.16 µM, first compound 0.000316 µM): 20.2%
viability, T/C (second compound 3.16 µM, first compound 0.001 µM): 15.8%
viability, T/C (second compound 3.16 µM, first compound 0.00316 µM): 12.9%
viability, T/C (second compound 3.16 µM, first compound 0.01 µM): 10.2%
viability, T/C [19]: 7.41%
viability, T/C [20]: 8.01%
viability, T/C (second compound 10 µM, first compound 0.000316 µM): 20.3%
viability, T/C (second compound 10 µM, first compound 0.001 µM): 16.8%
viability, T/C (second compound 10 µM, first compound 0.00316 µM): 13.4%
viability, T/C (second compound 10 µM, first compound 0.01 µM): 13.1%
viability, T/C [25]: 10.9%
viability, T/C [26]: 10.3%

CCNC(=O)CC1N=C(c2ccc(Cl)cc2)c2cc(OC)ccc2-n2c(C)nnc21 (stereo not given) + CNCc1ccccc1-c1csc(C(C)Nc2nc(C)nc3cc(OC)c(OC)cc23)c1
IC50 (second compound 0.1 µM): 1010 nM
IC50 (second compound 0.316 µM): 602 nM
IC50 (second compound 1 µM): 362 nM
IC50 (second compound 3.16 µM): 127 nM
IC50 (second compound 10 µM): < 31.6 nM
viability, T/C [1]: 96.7%
viability, T/C [2]: 92.1%
viability, T/C [3]: 66.1%
viability, T/C [4]: 49.9%
viability, T/C [5]: 42.1%
viability, T/C [6]: 30%
viability, T/C [7]: 85.4%
viability, T/C [8]: 87.6%
viability, T/C [9]: 64.1%
viability, T/C [10]: 39.2%
viability, T/C [11]: 32.7%
viability, T/C [12]: 30.6%
viability, T/C [13]: 70.2%
viability, T/C [14]: 67.6%
viability, T/C [15]: 49%
viability, T/C [16]: 39%
viability, T/C [17]: 29.7%
viability, T/C [18]: 25.5%
viability, T/C [19]: 72.3%
viability, T/C [20]: 62.5%
viability, T/C [21]: 1.46%
viability, T/C [22]: 0.1%
viability, T/C [23]: 2.03%
viability, T/C [24]: 1.27%
viability, T/C [25]: 0.18%
viability, T/C [26]: 0.15%
viability, T/C [27]: 0.22%
viability, T/C [28]: 0.09%
viability, T/C [29]: 0.09%
viability, T/C [30]: 0.15%
